Assay results reported in US20100029654A1, “CARDIOVASCULAR COMPOSITIONS AND USE OF THE SAME FOR THE TREATMENT OF ALZHEIMER'S DISEASE” (MOUNT SINAI SCHOOL OF MEDICINE, priority 2006, published 2010).
Where a name gives a salt, the structure may show the parent alone. Read-outs that look alike come from different tables or passages of the source.

Legend:
[1] = test system: Aβ1-40; test: Aβ1-40 content in conditioned medium of primary cortico-hippocampal neuron cultures from Tg2576 mice (ELISA; primary and secondary dose-response screening); format: cell-based, mouse; settings: for activity at 100 µM / Ab1-40 (% of ctl): drug 100 μM; for activity at 100 µM: read-out: Ab1-40 (% of ctl); for EC50: read-out: EC50 (molar) Aβ1-40; for reduced Aβ1-40: <85% of ctl
How it was run: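 Primary cortico-hippocampal neurons from embryonic Tg2576 mice were plated at 1.0×10^5 cells per well on poly-D-lysine-coated 96-well plates in Neurobasal with 2% B27, 0.5 mM L-glutamine and 1% penicillin-streptomycin. Cultures received drug in 1% DMSO, and Aβ1-40 in the conditioned medium was measured by BioSource ELISA 24 hours after treatment, relative to vehicle controls.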

[2] = test system: Aβ1-42; test: Aβ1-42 content in conditioned medium of primary cortico-hippocampal neuron cultures from Tg2576 mice (ELISA; primary and secondary dose-response screening); format: cell-based, mouse; settings: for Ab1-42 (% of ctl) / activity at 100 µM: drug 100 μM; for activity at 100 µM: Mus musculus, Neuron, 24 h, read-out: Ab1-42 (% of ctl); for reducing Aβ1-42: <85% of ctl
How it was run: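 Primary cortico-hippocampal neurons from embryonic Tg2576 mouse brain were seeded on poly-D-lysine-coated 96-well plates at 1.0×10^5 cells per well in serum-free Neurobasal medium with 2% B27, 0.5 mM L-glutamine and 1% penicillin-streptomycin. For primary screening, duplicate wells received 100 μM drug (1% DMSO final). Vehicle-treated cultures served as controls, and Aβ1-42 in conditioned medium was measured by commercial ELISA.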

[3] = test system: Aβ1-42; test: as above; format: cell-based, mouse; settings: Mus musculus, 24 h; for activity at 100 µM: primary screening, drug 100 μM, Tg2576 neuron cultures, table sorted by Aβ1-42, read-out: Ab1-42 (% of ctl); for EC50: Neuron, read-out: EC50 (molar) Aβ1-42
[4] = test system: primary cortico-hippocampal neuron cultures; test: MTT in primary screening
[5] = test system: primary cortico-hippocampal neuron cultures; test: lactate dehydrogenase (LDH) activity assay in parallel neuron cultures; settings: for LDH at E-5M % of change: drug at E-5M
[6] = Mus musculus, 24 h, primary screening, Tg2576 neuron cultures, table sorted by Aβ1-42
[7] = Primary Screening, table sorted by Aβ1-40
[8] = primary screening, table sorted by Aβ1-42
[9] = Mus musculus, Neuron, 24 h, Primary Screening, table sorted by Aβ1-40
[10] = Mus musculus, Neuron, 24 h, primary screening, Tg2576 neuron cultures, table sorted by Aβ1-42
[11] = primary screening, Tg2576 neuron cultures, table sorted by Aβ1-42
[12] = secondary dose-response screening 0.01-100 μM, 24 hours

SMILES	MTT (% of ctl) [4, 7]	MTT (% of ctl) [4, 8]	LDH (% of ctl) [5, 7]	LDH (% of ctl) [5, 8]	activity at 100 µM [1, 9]	activity at 100 µM [1, 10]	reduced Aβ1-40 ([1]; primary screening)	activity at 100 µM [2, 7]	activity at 100 µM [2, 11]	other results
CO[C@H]1[C@H](O)[C@H](O[C@H]2CC[C@@]3(C=O)[C@H](CC[C@@H]4[C@@H]3CC[C@]3(C)[C@@H](C5=CC(=O)OC5)CC[C@]43O)C2)O[C@@H](C)[C@@H]1O [Peruvoside]	98.8 % of ctl	98.8 % of ctl	105.5 % of ctl	105.5 % of ctl						activity at 100 µM [1, 6]: 115%; Ab1-40 (% of ctl) [1, 7]: 115.3 % of ctl; Ab1-42 (% of ctl) [2, 7]: 90.9 % of ctl; activity at 100 µM [3]: 90.9%
CC(C)N(CCC(C(N)=O)(c1ccccc1)c1ccccn1)C(C)C (centres unmarked) [Disopyramide Phosphate]	71.2 % of ctl	71.2 % of ctl	125.8 % of ctl	125.8 % of ctl	83.5%	83.5%	reduced Aβ1-40	66.3%	66.3%	EC50 ([1]; Mus musculus, Neuron, 24 h): 0.000778 µM; reducing Aβ1-42 ([2]; primary screening): useful in reducing Aβ1-42; EC50 [3, 12]: 53.3 µM; LDH at E-5M % of change [5]: −3.7%
COCCOC(=O)C1=C(C)NC(C)=C(C(=O)OC(C)C)C1c1cccc([N+](=O)[O-])c1 (centres unmarked) [Nimodipine]	115.6 % of ctl	115.6 % of ctl	100.4 % of ctl	100.4 % of ctl	79.1%	79.1%		90.9%	90.9%	EC50 ([3]; conditioned medium of primary cortico-hippocampal neuron cultures from Tg2576 embryos, 24 hours after treatment, relative to vehicle (1% DMSO) control): 28.1 µM; EC50 [3, 12]: 28.1 µM; LDH at E-5M % of change [5]: −4.0%
COc1ccc(CCN(C)CCCC(C#N)(c2ccc(OC)c(OC)c2)C(C)C)cc1OC (centres unmarked) [Verapamil]			92.5 % of ctl	92.5 % of ctl			reduced Aβ1-40			activity at 100 µM [1, 6]: 70.9%; Ab1-40 (% of ctl) [1, 7]: 70.9 % of ctl; Ab1-42 (% of ctl) [2, 7]: 101.1 % of ctl; activity at 100 µM [3]: 101%
CC(C)(C)NC[C@H](O)COc1nsnc1N1CCOCC1 [Timolol Maleate]	99.2 % of ctl	99.2 % of ctl	104.4 % of ctl	104.4 % of ctl	101%	101%		104%	104%	
CC(C)(Sc1cc(C(C)(C)C)c(O)c(C(C)(C)C)c1)Sc1cc(C(C)(C)C)c(O)c(C(C)(C)C)c1 [Probucol]	94.8 % of ctl	94.8 % of ctl	109.3 % of ctl	109.3 % of ctl	76.8%	76.8%	reduced Aβ1-40	136%	136%	
C#CCN(C)Cc1ccccc1 [Pargyline Hydrochloride]	86.4 % of ctl	86.4 % of ctl	116.9 % of ctl	116.9 % of ctl	78.6%	78.6%	reduced Aβ1-40	106%	106%	
NC[C@H]1CC[C@H](C(=O)O)CC1 [Tranexamic Acid]	96.8 % of ctl	96.8 % of ctl	112.8 % of ctl	112.8 % of ctl	84.9%	84.9%	reduced Aβ1-40	53.9%	53.9%	reducing Aβ1-42 ([2]; primary screening): useful in reducing Aβ1-42
CCC(=O)O[C@@H](O[P@](=O)(CCCCc1ccccc1)CC(=O)N1C[C@H](C2CCCCC2)C[C@H]1C(=O)O)C(C)C [Fosinopril Sodium]	101.4 % of ctl	101.4 % of ctl	75.6 % of ctl	75.6 % of ctl	94.7%	94.7%		95%	95%	
COc1ccc(C2C(=O)c3ccccc3C2=O)cc1 [Anisindione]	110.7 % of ctl	110.7 % of ctl	148.9 % of ctl	148.9 % of ctl	90.1%	90.1%		103%	103%	
C=CCc1ccccc1OCC(O)CNC(C)C (centres unmarked) [Alprenolol]	92.2 % of ctl	92.2 % of ctl	128.0 % of ctl	128.0 % of ctl	93.8%	93.8%		106%	106%	
Cc1cccc(C)c1OCC(C)N (centres unmarked) [Mexiletine Hydrochloride]	95.6 % of ctl	95.6 % of ctl	103.4 % of ctl	103.4 % of ctl	91.3%	91.3%		115%	115%	
NS(=O)(=O)c1cc(C(=O)O)c(NCc2ccco2)cc1Cl [Furosemide]	101.0 % of ctl	101.0 % of ctl	98.2 % of ctl	98.2 % of ctl	118%	118%		95.7%	95.7%	
O=[N+]([O-])O[C@H]1CO[C@H]2[C@@H]1OC[C@H]2O[N+](=O)[O-] [Isosorbide Dinitrate]	100.8 % of ctl	100.8 % of ctl	124.6 % of ctl	124.6 % of ctl			reduced Aβ1-40			reducing Aβ1-42 ([2]; primary screening): useful in reducing Aβ1-42
C[N+]1(CCCCC[N+]2(C)CCCC2)CCCC1 [Pentolinium Tartrate]	103.8 % of ctl	103.8 % of ctl	118.0 % of ctl	118.0 % of ctl	121%	121%		134%	134%	
CNC1(C)C2CCC(C2)C1(C)C (centres unmarked) [Mecamylamine Hydrochloride]	114.9 % of ctl	114.9 % of ctl	97.0 % of ctl	97.0 % of ctl	124%	124%		130%	130%	
c1ccc(CC2=NCCN2)cc1 [Tolazoline Hydrochloride]	97.5 % of ctl	97.5 % of ctl	112.5 % of ctl	112.5 % of ctl	90.8%	90.8%		99.6%	99.6%	
CCOC(=O)C(C)(C)Oc1ccc(Cl)cc1 [Clofibrate]	97.9 % of ctl	97.9 % of ctl	110.5 % of ctl	110.5 % of ctl	90.9%	90.9%		92.5%	92.5%	
COc1ccc([C@@H]2Sc3ccccc3N(CCN(C)C)C(=O)[C@@H]2OC(C)=O)cc1 [Diltiazem Hydrochloride]	97.8 % of ctl	97.8 % of ctl	96.1 % of ctl	96.1 % of ctl	108%	108%		98.9%	98.9%	
NS(=O)(=O)c1cc2c(cc1C(F)(F)F)NC(Cc1ccccc1)NS2(=O)=O (centres unmarked) [Bendrofumethiazide]	88.9 % of ctl	88.9 % of ctl	104.7 % of ctl	104.7 % of ctl			reduced Aβ1-40			Ab1-40 (% of ctl) [1, 7]: 76.2 % of ctl; Ab1-40 (% of ctl) [1, 11]: 76.2 % of ctl; EC50 [1, 12]: 36.1 µM; Ab1-42 (% of ctl) [2, 7]: 58.4 % of ctl; reducing Aβ1-42 ([2]; primary screening): useful in reducing Aβ1-42; Ab1-42 (% of ctl) [2, 11]: 58.4 % of ctl; LDH at E-5M % of change [5]: 5.0%
